Assay [1] addresses T1, orexin-2 receptor (hOX2R) (Homo sapiens, UniProt O43614).
T1 construct: expressed in transfected cells; host or cells: Chinese hamster ovary (CHO) cells
T1 sequence (O43614 1-444): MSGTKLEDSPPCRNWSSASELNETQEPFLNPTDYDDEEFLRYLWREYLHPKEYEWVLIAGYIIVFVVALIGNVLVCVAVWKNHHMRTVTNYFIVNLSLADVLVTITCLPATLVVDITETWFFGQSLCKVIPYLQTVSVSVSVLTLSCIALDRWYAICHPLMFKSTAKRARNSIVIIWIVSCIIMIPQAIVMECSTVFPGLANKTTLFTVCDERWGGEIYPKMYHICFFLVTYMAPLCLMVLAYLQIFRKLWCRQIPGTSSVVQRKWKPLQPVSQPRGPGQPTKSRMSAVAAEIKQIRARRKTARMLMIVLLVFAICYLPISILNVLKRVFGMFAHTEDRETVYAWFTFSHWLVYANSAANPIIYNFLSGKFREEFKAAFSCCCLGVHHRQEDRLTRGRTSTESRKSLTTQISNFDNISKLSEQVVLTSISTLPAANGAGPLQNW
Put plainly: Measurement of orexin antagonistic activity (intracellular Ca2+ fluorescence, FDSS) on hOX2R. It is filed as cell-based. The settings on record: CHO cells forcibly expressing hOX2R; Fluo-4AM; ligand peptide (substituted human orexin-A) 3 nM; compound preincubated 30 minutes; read-out: IC50 Value OX2. An outline of the steps: (§1)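 CHO cells stably expressing hOX1R or hOX2R, loaded with 0.5 μM Fluo-4AM in HEPES/HBSS buffer with 0.1% BSA and 2.5 mM probenecid, pH 7.4, then preincubated 30 min with compound. Fluorescence recorded each second for 3 min by FDSS; maximum intensity taken as intracellular Ca2+ indicator of antagonism.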

For assay [2], the target named is T2, human orexin-1 receptor (hOX1R) (Homo sapiens, UniProt O43613).
T2 construct: expressed in transfected cells; host or cells: Chinese hamster ovary (CHO) cells
T2 sequence (O43613 1-425): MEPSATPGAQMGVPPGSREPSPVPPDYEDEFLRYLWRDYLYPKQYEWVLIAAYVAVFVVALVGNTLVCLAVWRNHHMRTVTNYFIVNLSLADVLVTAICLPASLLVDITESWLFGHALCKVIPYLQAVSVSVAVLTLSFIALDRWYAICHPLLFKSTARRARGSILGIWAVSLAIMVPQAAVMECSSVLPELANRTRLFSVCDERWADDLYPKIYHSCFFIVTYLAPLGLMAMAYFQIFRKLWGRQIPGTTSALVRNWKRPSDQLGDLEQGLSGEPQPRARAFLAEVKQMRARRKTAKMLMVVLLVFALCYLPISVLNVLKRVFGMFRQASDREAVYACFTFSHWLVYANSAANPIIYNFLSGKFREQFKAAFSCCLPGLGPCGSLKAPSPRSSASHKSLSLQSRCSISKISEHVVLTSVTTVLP
Put plainly: Measurement of orexin antagonistic activity (intracellular Ca2+ fluorescence, FDSS) on hOX1R. It is filed as cell-based. Conditions: CHO cells forcibly expressing hOX1R; Fluo-4AM; ligand peptide (substituted human orexin-A) 300 pM; compound preincubated 30 minutes; read-out: IC50 Value OX1. Summed up: as §1

pIC50: −log10 of the molar value.

Broadly, the pIC50 is the IC50 on a negative log10 scale, so that one unit is a factor of ten. Regarding `COCCN(C(=O)c1cc(C)ccc1-n1nccn1)[C@@H](C)Cn1cc(-c2ccc(F)cn2)cn1` [Example 38, N-{(2S)-1-[4-(5-Fluoropyridin-2-yl)-1H-pyrazol-1-yl]propan-2-yl}-N-(2-methoxyethyl)-5-methyl-2-(2H-1,2,3-triazol-2-yl)benzamide], the pIC50 in assay [1] was 6.46; in assay [2] it was 7.59.
For `Cc1ccc(-n2nccn2)c(C(=O)N(CC(C)O)[C@@H](C)Cn2cc(-c3ccc(F)cc3)cn2)c1` (stereo partly drawn) [Example 102, N-{(2S)-1-[4-(4-Fluorophenyl)-1H-pyrazol-1-yl]propan-2-yl}-N-(2-hydroxypropyl)-5-methyl-2-(2H-1,2,3-triazol-2-yl)benzamide] the same measures were 7.55 and 8.85.
Regarding `CCN(C(=O)c1cc(F)ccc1-c1ncccn1)[C@@H](C)Cn1cc(-c2ccc(F)cc2)cn1` [Example 30, N-Ethyl-5-fluoro-N-{(2S)-1-[4-(4-fluorophenyl)-1H-pyrazol-1-yl]propan-2-yl}-2-(pyrimidin-2-yl)benzamide], the figures for the pIC50 in assay [1] and in assay [2] were 7.45 and 8.92, respectively.
For `CCN(C(=O)c1c(F)cccc1-c1ncccn1)[C@@H](C)Cn1ccc(-c2ccc(F)cc2)n1` [Example 13, N-Ethyl-2-fluoro-N-[(2S)-1-[3-(4-fluorophenyl)-1H-pyrazol-1-yl]propan-2-yl)-6-(pyrimidin-2-yl)benzamide] the same measures were 7.27 and 8.72.
With `Cc1ccc(-n2nccn2)c(C(=O)N(CCO)[C@@H](C)Cn2cc(-c3ccc(F)cn3)cn2)c1` [Example 41, N-{(2S)-1-[4-(5-Fluoropyridin-2-yl)-1H-pyrazol-1-yl]propan-2-yl}-N-(2-hydroxyethyl)-5-methyl-2-(2H-1,2,3-triazol-2-yl)benzamide], the pIC50 is 7.06 in assay [1] and 7.51 in assay [2].
As to `CCN(C(=O)c1cc(F)ccc1-c1ncccn1)[C@@H](C)Cn1ccc(-c2ccc(F)c(F)c2)n1` [Example 17, N-{(2S)-1-[3-(3,4-Difluorophenyl)-1H-pyrazol-1-yl]propan-2-yl}-N-ethyl-5-fluoro-2-(pyrimidin-2-yl)benzamide], the figures for the pIC50 in assay [1] and in assay [2] were 8.00 and 8.68, respectively.
For `CCN(C(=O)c1cc(Cl)ccc1-c1ncccn1)[C@@H](C)Cn1cc(-c2ccc(F)cn2)cn1` [Example 37, 5-Chloro-N-ethyl-N-{(2S)-1-[4-(5-fluoropyridin-2-yl)-1H-pyrazol-1-yl]propan-2-yl}-2-(pyrimidin-2-yl) benzamide] the same measures were 7.08 and 8.15.
`CCN(C(=O)c1ccccc1-n1nccn1)[C@@H](C)Cn1cc(-c2ccc(F)cn2)cn1` [Example 21, N-Ethyl-N-{(2S)-1-[4-(5-fluoropyridin-2-yl)-1H-pyrazol-1-yl]propan-2-yl}-2-(2H-1,2,3-triazol-2-yl)benzamide]: the pIC50 in assay [1] is 6.73; in assay [2] it was 8.09.

For the origin of these results see patent US20150166523A1, “BRANCHED CHAIN ALKYL HETEROAROMATIC RING DERIVATIVE” (TAISHO PHARMACEUTICAL CO., LTD., priority 2012, published 2015).
